Where two headings read alike, the source gives them in different places.
Columns and labels:
[1] = target: T1, Human α7 (Homo sapiens, UniProt P36544); experiment: Competition binding to human α7 receptors in membrane preparations
T1 construct: host or cells: HEK cells co-expressing RIC3
Method: (§1) SH-EP1/human α4β2 (Eaton et al., 2003), SH-EP1/human α4β4 (Gentry et al., 2003), SH-EP1/α6β3β4α5 (Grinevich et al., 2005), TE671/RD and SH-SY5Y cell lines (obtained from Dr. Ron Lukas, Barrow Neurological Institute) were maintained in proliferative growth phase in Dulbecco's modified Eagle's medium (Gibco/BRL) with 10% horse serum (Gibco BRL), 5% fetal bovine serum (HyClone, Logan Utah), 1 mM sodium pyruvate, 4 mM L-glutamine. For maintenance of stable transfectants, the α4β2 and α4β4 cell media was supplemented with 0.25 mg/mL zeocin and 0.13 mg/mL hygromycin B. Selection was maintained for the α6β3β4α5 cells with 0.25 mg/mL of zeocin, 0.13 mg/mL of hygromycin B, 0.4 mg/mL of geneticin, and 0.2 mg/mL of blasticidin. HEK/human α7/RIC3 cells (obtained from J. Lindstrom, U. Pennsylvania) were maintained in proliferative growth phase in Dulbecco's modified Eagle's medium (Gibco/BRL) with 10% fetal bovine serum (HyClone, Logan Utah), 1 mM sodium pyruvate, 4 mM L-glutamine, 0.4 mg/mL geneticin; 0.2 mg/ml hygromycin B.
(§2) Preparation of membranes from rat tissues. Rat cortices were obtained from Analytical Biological Services, Incorporated (ABS, Wilmington, Del.). Tissues were dissected from female Sprague-Dawley rats, frozen and shipped on dry ice. Tissues were stored at −20° C. until needed for membrane preparation. Cortices from 10 rats were pooled and homogenized by Polytron (Kinematica GmbH, Switzerland) in 10 volumes (weight:volume) of ice-cold preparative buffer (KCl, 11 mM; KH2PO4, 6 mM; NaCl 137 mM; Na2HPO4 8 mM; HEPES (free acid), 20 mM; iodoacetamide, 5 mM; EDTA, 1.5 mM; 0.1 mM PMSF pH 7.4). The resulting homogenate was centrifuged at 40,000 g for 20 minutes at 4° C. and the resulting pellet was resuspended in 20 volumes of ice-cold water. After 60-minute incubation at 4° C., a new pellet was collected by centrifugation at 40,000 g for 20 minutes at 4° C. The final pellet was resuspended in preparative buffer and stored at −20° C. On the day of the assay, tissue was thawed, centrifuged at 40,000 g for 20 minutes and then resuspended in PBS (Dulbecco's Phosphate Buffered Saline, Life Technologies, pH 7.4) to a final concentration of 2-3 mg protein/mL. Protein concentrations were determined using the Pierce BCA Protein Assay kit (Pierce Biotechnology, Rockford, Ill.), with bovine serum albumin as the standard. Preparation of membranes from clonal cell lines. Cells were harvested in ice-cold PBS, pH 7.4, then homogenized with a polytron (Brinkmann Instruments, Westbury, N.Y.). Homogenates were centrifuged at 40,000 g for 20 minutes (4° C.). The pellet was resuspended in PBS and protein concentration determined using the Pierce BCA Protein Assay kit (Pierce Biotechnology, Rockford, Ill.).
(§3) Competition binding to receptors in membrane preparations. Binding to nicotinic receptors was assayed on membranes using standard methods adapted from published procedures (Lippiello and Fernandes, 1986; Davies et al., 1999). In brief, membranes were reconstituted from frozen stocks (approximately 0.2 mg protein) and incubated for 2 h on ice in […] assay buffer (PBS) in the presence of competitor compound (0.001 nM to […]) and radioligand. [^3H]-nicotine (L-(−)-[N-methyl-3H]-nicotine, 69.5 Ci/mmol, Perkin-Elmer Life Sciences) was used for human α4β2 binding studies. [^3H]-epibatidine (52 Ci/mmol, Perkin-Elmer Life Sciences) was used for binding studies at the other receptor subtypes. Incubation was terminated by rapid filtration on a multimanifold tissue harvester (Brandel, Gaithersburg, Md.) using GF/B filters presoaked in 0.33% polyethyleneimine (w/v) to reduce non-specific binding. Filters were washed 3 times and the radioactivity retained was determined by liquid scintillation counting.
(§4) Binding data analysis. Binding data were expressed as percent total control binding. Replicates for each point were averaged and plotted against the log of drug concentration. […]

[2] = target: T2, Rat α7 (Rattus norvegicus, UniProt Q05941); experiment: Competition binding to rat α7 receptors in membrane preparations
T2 construct: Preparation of membranes from rat tissues; Rat cortices were obtained from Analytical Biological Services; tissue Analytical Biological Services, Incorporated (ABS, Wilmington, Del.); host or cells: rat brain membranes (only cortex is described)
Method: as §2, §3
(§5) Binding data analysis. Binding data were expressed as percent total control binding. Replicates for each point were averaged and plotted against the log of drug concentration. The IC50 (concentration of the compound that produces 50% inhibition of binding) was determined by least squares non-linear regression using GraphPad Prism software (GraphPAD, San Diego, Calif.). Ki was calculated using the Cheng-Prusoff equation (Cheng and Prusoff, 1973).

[3] = target: T3, Rat α4β2 (Rattus norvegicus, UniProt P09483+P12390); experiment: Competition binding to rat α4β2 receptors in membrane preparations
T3 construct: Preparation of membranes from rat tissues; Rat cortices were obtained from Analytical Biological Services; tissue Analytical Biological Services, Incorporated (ABS, Wilmington, Del.); host or cells: rat cortex membranes (female Sprague-Dawley)
Method: as §2, §3, §5

[4] = target: human α4β2 (Homo sapiens, UniProt P17787+P43681); experiment: Competition binding to human α4β2 receptors in membrane preparations; settings: membranes, [3H]-nicotine competition; Ki by Cheng-Prusoff; read-out: human α4β2 Ki
Method: as §1, §2, §3, §4

[5] = system: male ICR mice; experiment: Formalin test (2.5%) in mice; assay type: in vivo
Method: The formalin test in mice is a valid and reliable model of nociception and is sensitive for various classes of analgesic drugs. The noxious stimulus is an injection of dilute formalin (1% in saline) under the skin of the dorsal surface of the right hindpaw. The response is the amount of time the animals spend licking the injected paw. Two distinct periods of high licking activity can be identified, an early phase lasting the first 5 min and a late phase lasting from 20 to 30 min after the injection of formalin. See, Hunskaar et al., Pain, 1987, July; 30(1):103-14, incorporated by reference with regard to the test.
A formalin test was carried out in an open Plexiglas cage, with a mirror placed under the floor to allow an unobstructed view of the paws. Mice were allowed to acclimate for 15 min in the test cage before formalin injection. Each animal was injected with 20 μl of 2.5% formalin in the intraplantar region of the right hindpaw. Mice were then observed 0-5 min (Phase 1) and 20-45 min (Phase 2) post-formalin, and the amount of time spent (expressed in sec) licking the injected paw was recorded. Compound A or vehicle were injected s.c. 15 min before the formalin injection.
FIG. 1 illustrates the effects of Compound A in the formalin test (2.5%) in male ICR mice. As described, subject mice were pretreated with an s.c. injection of Compound A and 15 minutes later received formalin ipl. […] The lowest active dose was 3 mg/kg.

[6] = membranes, [3H]-epibatidine competition, Ki by Cheng-Prusoff, read-out: Human α7 Ki
[7] = membranes, [3H]-epibatidine competition, Ki by Cheng-Prusoff, read-out: Rat α7 Ki

Structure (SMILES) | Ki [1, 6] [nM] | Ki [2, 7] [nM] | Ki [3] [nM] | Ki [4] [nM] | Ki [1] [nM] | Ki [2] [nM] | nociceptive behavior (time licking the injected paw), Phase 1 ([5]; 0-5 min post-formalin, s.c. 15 min before formalin, F(1,35)=41.8, P<0.0001) | nociceptive behavior (time licking the injected paw), Phase 2 ([5]; 20-45 min post-formalin, s.c. 15 min before formalin, F(1,35)=24.8, P<0.0001) | lowest active dose ([5]; formalin test, s.c. administration) [mg/kg] | effects in formalin test in presence of mecamylamine ([5]; mecamylamine 2 mg/kg)
c1cncc(N2CC3CNCC(C2)O3)c1 [3-(pyridin-3-yl)-9-oxa-3,7-diazabicyclo[3.3.1]nonane] | 670 | 650 | 3.9 | 1.1 |  |  |  |  |  | 
c1ncc(N2CC3CNCC(C2)O3)cn1 [3-(pyrimidin-5-yl)-9-oxa-3,7-diazabicyclo[3.3.1]nonane] | 2900 | 3200 | 8 | 7.6 |  |  |  |  |  | 
Fc1cncc(N2CC3CNCC(C2)O3)c1 [Compound A, 3-(5-fluoropyridin-3-yl)-9-oxa-3,7-diazabicyclo[3.3.1]nonane] |  |  | 1.3 | 1.8 | 76 | 36 | significantly reduced | significantly reduced | 3 | blocked

— US20110257168A1, “DERIVATIVES OF OXABISPIDINE AS NEURONAL NICOTINIC ACETYLCHOLINE RECEPTOR LIGANDS” (Targacept, Inc., priority 2008, published 2011)
